Measured values: EP0206783A2, “Expression and secretion of polypeptides from saccharomyces cerevisiae” (The Salk Institute Biotechnology Industrial Associates, Inc., priority 1985, dated 1986)
Ends that are not written are not given here.

Tested on: pituitary cells
Experiment: rat pituitary cell bioassay for GRF (release of growth hormone)
Type: cell-based
Details: plated rat pituitary cells, dexamethasone added, GH measured by anti-rat GH RIA; yeast peptide purified, from pTRP213-transformed GG100-14D
Experimental: A rat pituitary cell bioassay for GRF was conducted using the purified GRF analog secreted from pTRP213-transformed S. cerevisiae cells (GG100-14D). The ability of the GRF analog to cause the release of growth hormone from the pituitary cells was measured and compared to the ability of a synthetic hGRF(1-40)-OH standard to do the same. Such an analysis allowed the biological activity of yeast-produced GRF analog to be evaluated.
Typically, pituitaries of 20 rats were removed and treated with collagenase to obtain a suspension of approximately 8×10^7 cells which were then plated in the appropriate medium. The cells, attached to tissue culture dishes, were treated with yeast-derived peptide or synthetic standard within three to five days after plating. Dexamethasone was added to enhance the effect of GRF on GH secretion; cells treated in this manner secrete 8-9 times more GH than do control cells treated with GRF but not dexamethasore. Growth hormone secretion levels were measured using an anti-rat GH RIA which had been standardized with respect to the synthetic standard.
The percent of maximum rat growth hormone secretion upon treatment of the plated pituitary cells with purified GRF analog secreted from yeast and treatment with synthetic hGRF(1-40)-OH was determined. The ED50 value for secretion with both treatments was about. 32 pM.

**Q.** How did the “ED50 value for secretion (percent of maximum rat growth hormone secretion)” value turn out when “hGRF(1-40)-OH (YADAIFTNSYRKVLGQLSARKLLQDIMSRQQGESNQERGA-OH; UniProt P01286 32-71, looked up, fragment) [synthetic hGRF(1-40)-OH, synthetic polypeptide standard, hGRF(1-40)-OH (with Met at position 27)]” was run?
**A.** The value was ~0.032 nM.
